According to US20100048696A1, “AGRICULTURAL DISEASE CONTROL AGENT” (Idemitsu Kosan Co., Ltd., priority 2007, published 2010):
Where two headings read alike, the source gives them in different places.

What was measured:
Assay type in all cases: cell-based
Conditions in all cases: 5 minutes
Burkholderia glumae = assay: Material disinfection test
Ralstonia solanacearum = test system: Ralstonia solanacearum
Rhizoctonia solani = assay: Material disinfection test
Fusarium oxysporum = assay: Material disinfection test
Botrytis cinerea = assay: Material disinfection test
Burkholderia plantarii = assay: Material disinfection test
Pyricularia oryzae = test system: Pyricularia oryzae
Pythium ultimum = assay: Material disinfection test
Erwinia chrysanthemi = assay: Material disinfection test

Compound | Average value of viable bacteria counts on all materials examined (Burkholderia glumae; 10 times solution sprayed) | Average value of viable bacteria counts on all materials examined (Burkholderia glumae; 50 times solution sprayed) | Average value of viable bacteria counts on all materials examined (Ralstonia solanacearum; 10 times solution sprayed) | Average value of viable bacteria counts on all materials examined (Ralstonia solanacearum; 50 times solution sprayed) | average value of viable filamentous fungi counts on all materials examined (Rhizoctonia solani; 10 times solution sprayed) | average value of viable filamentous fungi counts on all materials examined (Rhizoctonia solani; 50 times solution sprayed) | average value of viable filamentous fungi counts on all materials examined (Fusarium oxysporum; 10 times solution sprayed) | average value of viable filamentous fungi counts on all materials examined (Fusarium oxysporum; 50 times solution sprayed) | average value of viable filamentous fungi counts on all materials examined (Botrytis cinerea; 10 times solution sprayed) | average value of viable filamentous fungi counts on all materials examined (Botrytis cinerea; 50 times solution sprayed) | Average value of viable bacteria counts on all materials examined (Burkholderia plantarii; 10 times solution sprayed) | Average value of viable bacteria counts on all materials examined (Burkholderia plantarii; 50 times solution sprayed) | average value of viable filamentous fungi counts on all materials examined (Pyricularia oryzae; 10 times solution sprayed) | average value of viable filamentous fungi counts on all materials examined (Pyricularia oryzae; 50 times solution sprayed) | average value of viable filamentous fungi counts on all materials examined (Pythium ultimum; 10 times solution sprayed) | average value of viable filamentous fungi counts on all materials examined (Pythium ultimum; 50 times solution sprayed) | Average value of viable bacteria counts on all materials examined (Erwinia chrysanthemi; 10 times solution sprayed) | Average value of viable bacteria counts on all materials examined (Erwinia chrysanthemi; 50 times solution sprayed)
O=C1O[C@H]([C@@H](O)CO)C(O)=C1O [Ascorbic acid] | 1.1 × 10^8 cfu/ml | 3.2 × 10^8 cfu/ml | 8.5 × 10^8 cfu/ml | 1.0 × 10^9 cfu/ml | 1.3 × 10^5 cfu/ml | 2.0 × 10^5 cfu/ml | 3.2 × 10^5 cfu/ml | 4.7 × 10^5 cfu/ml | 4.5 × 10^5 cfu/ml | 5.0 × 10^5 cfu/ml | 1.6 × 10^7 cfu/ml | 1.8 × 10^7 cfu/ml | 4.2 × 10^4 cfu/ml | 6.2 × 10^4 cfu/ml | 2.3 × 10^4 cfu/ml | 1.5 × 10^4 cfu/ml | 1.0 × 10^8 cfu/ml | 1.0 × 10^8 cfu/ml
CC(=O)O [Acetic acid] | 5.0 × 10^2 cfu/ml | 3.3 × 10^7 cfu/ml | 2.8 × 10^2 cfu/ml | 6.0 × 10^8 cfu/ml | 33 cfu/ml | 3.1 × 10^2 cfu/ml | 76 cfu/ml | 4.2 × 10^2 cfu/ml | 65 cfu/ml | 2.6 × 10^2 cfu/ml | 1.2 × 10^3 cfu/ml | 8.3 × 10^6 cfu/ml | 98 cfu/ml | 1.5 × 10^2 cfu/ml | 58 cfu/ml | 6.8 × 10^3 cfu/ml | 3.2 × 10^3 cfu/ml | 1.1 × 10^7 cfu/ml
O=C(O)CC(O)(CC(=O)O)C(=O)O [Citric acid] | 2.6 × 10^8 cfu/ml | 1.7 × 10^8 cfu/ml | 1.1 × 10^9 cfu/ml | 1.5 × 10^9 cfu/ml | 2.0 × 10^5 cfu/ml | 1.7 × 10^5 cfu/ml | 3.7 × 10^5 cfu/ml | 3.4 × 10^5 cfu/ml | 2.6 × 10^5 cfu/ml | 4.6 × 10^5 cfu/ml | 3.8 × 10^7 cfu/ml | 1.0 × 10^7 cfu/ml | – | 3.2 × 10^4 cfu/ml | 2.8 × 10^4 cfu/ml | 1.7 × 10^4 cfu/ml | 1.7 × 10^8 cfu/ml | 1.9 × 10^8 cfu/ml
O=C(O)CC(O)C(=O)O (centres unmarked) [Malic acid] | 3.6 × 10^8 cfu/ml | 5.2 × 10^8 cfu/ml | 9.5 × 10^8 cfu/ml | 7.8 × 10^8 cfu/ml | 2.1 × 10^5 cfu/ml | 1.8 × 10^5 cfu/ml | 1.8 × 10^5 cfu/ml | 4.5 × 10^5 cfu/ml | 3.7 × 10^5 cfu/ml | 2.9 × 10^5 cfu/ml | 1.0 × 10^7 cfu/ml | 3.2 × 10^7 cfu/ml | 4.6 × 10^4 cfu/ml | 5.0 × 10^4 cfu/ml | 2.5 × 10^4 cfu/ml | 4.3 × 10^4 cfu/ml | 1.4 × 10^8 cfu/ml | 1.2 × 10^8 cfu/ml
O=C(O)CCC(=O)O [Succinic acid] | 1.0 × 10^8 cfu/ml | 1.5 × 10^8 cfu/ml | 1.1 × 10^9 cfu/ml | 8.5 × 10^8 cfu/ml | 1.5 × 10^5 cfu/ml | 2.1 × 10^5 cfu/ml | 2.3 × 10^5 cfu/ml | 4.5 × 10^5 cfu/ml | 3.5 × 10^5 cfu/ml | 4.3 × 10^5 cfu/ml | 2.5 × 10^7 cfu/ml | 2.6 × 10^7 cfu/ml | 3.2 × 10^4 cfu/ml | 3.1 × 10^4 cfu/ml | 7.8 × 10^3 cfu/ml | 3.0 × 10^4 cfu/ml | 1.0 × 10^8 cfu/ml | 1.0 × 10^8 cfu/ml
